According to US20230357179A1, “RAF KINASE INHIBITORS AND METHODS OF USE THEREOF” (Deciphera Pharmaceuticals, LLC, priority 2021, published 2023):

Tests used:
WM3629 cells = experiment: WM3629 cell proliferation assay (2), resazurin, 384-well; type: cell-based; details: inhibition of cell proliferation, 67-72 hours
Experimental: WM3629 Cell Proliferation Assay (2)
WM3629 cells (#WM3629-01-0001) are obtained from Rockland Immunochemicals Inc (Gilbertsville, PA). Briefly, cells were grown in MCDB 153 medium (Sigma, #M7403, St. Louis, MO) supplemented with 20% Leibovitz's L-15 (ThermoFisher #11415-064, Waltham, MA), 2% heat inactivated fetal bovine serum (ThermoFisher, #A3840001, Waltham, MA), 5 μg/mL Insulin (Bovine Pancreas) (Sigma, #I0516, St. Louis, MO), 1.68 mM Calcium Chloride (Sigma, #C-34006, St. Louis, MO) and 1% Penicillin/Streptomycin/L-Glutamine (ThermoFisher #10378016, Waltham, MA) at 37° C., 5% CO2, and 95% humidity. Cells are expanded until reaching 70-95% confluency at which point they are sub-cultured or harvested for assay use. Using the Beckman Coulter Echo 650, a serial dilution of test compound is dispensed into a 384-well black clear bottom plate in triplicate. One thousand one hundred twenty-five cells are added per well in 50 μL complete growth medium in the 384-well plate. Plates are incubated for 67-72 hours at 37° C., 5% CO2, and 95% humidity. […] Plates are read on a Synergy2 or equivalent reader (Biotek, Winooski VT) using an excitation of 540 nm and an emission of 600 nm. Data is analyzed using Prism software (GraphPad, San Diego, CA) to calculate IC50 values.

Miapaca-2 cells = experiment: MiaPaca-2 combination cell proliferation assay (1) with cobimetinib, 96-well; type: cell-based; details: inhibition of cell proliferation, read-out: MiaPaca-2 Combo (1) IC50
Experimental: MiaPaca-2 Combination Cell proliferation Assay (1)
Miapaca-2 cells (catalog #CRL-1420) are obtained from the American Type Culture Collect (ATCC, Manassas, VA). Briefly, cells were grown in DMEM supplemented with 10% characterized fetal bovine serum (Invitrogen, Carlsbad, CA), 2.5% New Zealand sourced horse serum and 1% Penicillin/Streptomycin/L-Glutamine at 37° C., 5% CO2, and 95% humidity. Cells are expanded until reaching 70-95% confluency at which point they are subcultured or harvested for assay use. A serial dilution of test compound was dispensed into multiple 96-well black clear bottom plates in triplicate. A serial dilution of complete growth medium containing cobimetinib was prepared at twice the final concentration and 100 μL was dispensed across the test compound titration in triplicate. Three thousand cells are added per well in 100 μL complete growth medium in each 96-well plate. Plates are incubated for 67-72 hours at 37° C., 5% CO2, and 95% humidity. At the end of the incubation, 40 μL of a 440 μM solution of resazurin (Sigma, St. Louis, MO) in PBS is added to each well of the plate and plates are incubated for an additional 5-7 hours at 37° C., 5% CO2, and 95% humidity. Plates are read on a Synergy2 or equivalent reader (Biotek, Winooski VT) using an excitation of 540 nm and an emission of 600 nm. Drug synergy was assessed via BLISS analysis in the Combenefit software (Cancer Research UK Cambridge Institute, Cambridge, UK). Data is analyzed using Prism software (GraphPad, San Diego, CA) to calculate IC50 values. Shifts in test compound IC50 values are reported from top-constrained combination therapy curves.

Row | IC50 (Miapaca-2 cells) | SMILES | IC50 (WM3629 cells)
1 |  | CNC(=O)c1cc(-c2cncc(-c3cc(NC(=O)N4CC[C@H](C(F)(F)F)C4)ccc3C)c2)ccn1 [Example 228] | 1000 to 10000 nM
2 | 100 to 500 nM | Cc1cc(F)c(NC(=O)NCCC2(C)CC2)cc1-c1cc(OCCO)nc(-c2ccnc3[nH]ncc23)c1 [Example 87] | 
3 |  | CNC(=O)c1cc(-c2cc(-c3cc(NC(=O)N4CC[C@H](C(F)(F)F)C4)ccc3C)ccn2)ccn1 [Example 215] | 500 to 1000 nM
